# From patent US20210071229A1, “FIBRINOGEN TEST” (DSM IP Assets B.V., priority 2018, published 2021)
# Where “and” joins values, the source holds several entries; their conditions need not be identical. Equal entries are not always repeated. Where two headings read alike, the source gives them in different places.
# How the values were obtained:
# batroxobin = batroxobin (Bothrops atrox, UniProt P04971); format: biochemical, Bothrops moojeni
# control plasma [1] = test: activated Partial Thromboplastin Time (aPTT) clotting test, spiked control plasma, BCS-XP; format: biochemical
# control plasma [2] = tested on: control plasma
# batroxobin, sequence (P04971 25-255 limits assumed): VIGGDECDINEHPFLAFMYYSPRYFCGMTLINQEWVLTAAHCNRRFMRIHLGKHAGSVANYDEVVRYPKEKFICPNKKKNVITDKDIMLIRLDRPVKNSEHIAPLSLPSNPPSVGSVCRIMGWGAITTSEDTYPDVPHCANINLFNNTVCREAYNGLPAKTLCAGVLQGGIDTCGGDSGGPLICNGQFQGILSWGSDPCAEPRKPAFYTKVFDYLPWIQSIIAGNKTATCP
compound,measurement,setting,value
hydroxyethyl starch [HES],interference in batroxobin-Pefachrome TH reaction,batroxobin,failed to see significant interference
CC1CNc2c(cccc2S(=O)(=O)N[C@@H](CCCNC(=N)N)C(=O)N2CC[C@@H](C)C[C@@H]2C(=O)O)C1 (some centres unmarked) [Argatroban],aPTT-test CT,control plasma [1]; 0.13 μg/ml in plasma,34.62 s
same,aPTT-test Mean,control plasma [1]; 0.13 μg/ml in plasma,34.62 s
same,aPTT-test delay,control plasma [1]; 0.13 μg/ml in plasma,8%
same,aPTT-test CT,control plasma [1]; 2.0 μg/ml in plasma,55.77 s and 55.46 s
same,aPTT-test Mean,control plasma [1]; 2.0 μg/ml in plasma,55.62 s
same,aPTT-test delay,control plasma [1]; 2.0 μg/ml in plasma,73%
same,PT-test CT,control plasma [2]; 0.13 μg/ml in plasma,10.18 s and 10.21 s
same,PT-test Mean,control plasma [2]; 0.13 μg/ml in plasma,10.20 s
same,PT-test delay,control plasma [2]; 0.13 μg/ml in plasma,1%
same,PT-test CT,control plasma [2]; 2.0 μg/ml in plasma,12.26 s and 12.24 s
same,PT-test Mean,control plasma [2]; 2.0 μg/ml in plasma,12.25 s
same,PT-test delay,control plasma [2]; 2.0 μg/ml in plasma,22%
same,effect on Vmax of batroxobin-Pefachrome TH substrate,batroxobin,very slight reduction
same,effect on enzyme activity of batroxobin,batroxobin,did not significantly suppress
same,effect on Km of batroxobin-Pefachrome TH substrate,batroxobin; 0.13-2.0 μg/mL,not significantly affected
NCCCCCC(=O)O [6-aminocaproic acid],effect on enzyme activity of batroxobin vs untreated control,batroxobin,did not significantly influence the activity
same,predicted Vmax and Km vs untreated control,batroxobin,not significantly different
O=C(NC[C@H]1CN(c2ccc(N3CCOCC3=O)cc2)C(=O)O1)c1ccc(Cl)s1 [Rivaroxaban],aPTT-test CT,control plasma [1]; 38 ng/ml in plasma,39.46 s and 39.44 s
same,aPTT-test Mean,control plasma [1]; 38 ng/ml in plasma,39.45 s
same,aPTT-test delay,control plasma [1]; 38 ng/ml in plasma,23%
same,aPTT-test CT,control plasma [1]; 600 ng/ml in plasma,80.73 s and 80.07 s
same,aPTT-test Mean,control plasma [1]; 600 ng/ml in plasma,80.40 s
same,aPTT-test delay,control plasma [1]; 600 ng/ml in plasma,150%
same,PT-test CT,control plasma [2]; 38 ng/ml in plasma,10.74 s and 10.61 s
same,PT-test Mean,control plasma [2]; 38 ng/ml in plasma,10.68 s
same,PT-test delay,control plasma [2]; 38 ng/ml in plasma,6%
same,PT-test CT,control plasma [2]; 600 ng/ml in plasma,19.42 s and 19.32 s
same,PT-test Mean,control plasma [2]; 600 ng/ml in plasma,19.37 s
same,PT-test delay,control plasma [2]; 600 ng/ml in plasma,92%
same,effect on Vmax of batroxobin-Pefachrome TH substrate,batroxobin,very slight reduction
same,effect on enzyme activity of batroxobin,batroxobin,did not significantly suppress
same,effect on Km of batroxobin-Pefachrome TH substrate,batroxobin; 38-600 ng/mL,not significantly affected
hirudin,interference in batroxobin-Pefachrome TH reaction,batroxobin,failed to see significant interference
O=C(O)CN(CCN(CC(=O)O)CC(=O)O)CC(=O)O [EDTA],interference in batroxobin-Pefachrome TH reaction,batroxobin,failed to see significant interference
[H]/N=C(/N)c1ccc(NCc2nc3cc(C(=O)N(CCC(=O)O)c4ccccn4)ccc3n2C)cc1 [Dabigatran],effect on Km of batroxobin-Pefachrome TH substrate,batroxobin; 31-500 ng/mL,not significantly affected
aprotinin,effect on enzyme activity of batroxobin vs untreated control,batroxobin,did not significantly influence the activity
same,predicted Vmax and Km vs untreated control,batroxobin,not significantly different
